From patent publication US20110039762A1, “TARGETED ANTIMICROBIAL MOIETIES” (C3 JIAN, INC., priority 2009, published 2011)
“Also recorded” adds a separate entry of the source. Bridge positions count the residues as written; N and C are the ends. Square brackets hold non-standard residues; d marks the D form. Ends that are not written are not given here. dOrn = NCCC[C@@H](N)C(=O)O; Orn = NCCC[C@H](N)C(=O)O

tested on: microorganisms (e.g., bacteria, yeasts, fungi); experiment: Targeting peptide binding to target microorganisms (Table 3); settings: microorganism the targeting peptide binds; binding in aqueous buffers varied by peptide solubility, preferably 1x PBS

Substance | Target(s)
1T-267 (RIKEERKNRSYKFFIWRLFDEKTGFI; Peptide with targeting and/or antimicrobial activity) [Peptide 1T-267] | A. naeslundii; also recorded: F. nucleatum; also recorded: P. gingivalis; also recorded: T. denticola; also recorded: S. mitis; also recorded: S. mutans; also recorded: S. oralis; also recorded: S. sanguinis
1T-92 (GQDEGQRRAGVGEGQGVDG; Peptide with targeting and/or antimicrobial activity) [Peptide 1T-92] | S. mitis; also recorded: S. mutans
1T-121 (FAKETGFGIGGAQEGWWIIADIYGPNPF; Peptide with targeting and/or antimicrobial activity) [Peptide 1T-121] | S. gordonii; also recorded: S. mitis; also recorded: S. mutans; also recorded: S. oralis; also recorded: S. salivarious; also recorded: S. sanguinis
TT-308 (GLVIIPNLIALIILFSQVRQQTKDYFSNPKLSSR; Peptide with targeting and/or antimicrobial activity) | F. nucleatum
1T-86 (HRKNPVLGVGRRHRAHNVA; Peptide with targeting and/or antimicrobial activity) [Peptide 1T-86] | S. mitis; also recorded: S. oralis; also recorded: S. salivarious
1T-41 (KRGSKIVIAIAVVLIVLAGVWVW; Peptide with targeting and/or antimicrobial activity) [Peptide 1T-41] | S. mutans; also recorded: S. aureus; also recorded: S. epidermidis; also recorded: C. jeikeium; also recorded: C. striatum; also recorded: P. aeruginosa
1T-260 (NILYFIHDENQWEPQKAEIFRGSIKHCAWLSS; Peptide with targeting and/or antimicrobial activity) [Peptide 1T-260] | A. naeslundii; also recorded: P. gingivalis; also recorded: S. epidermidis; also recorded: S. gordonii; also recorded: S. mitis; also recorded: S. mutans; also recorded: S. oralis; also recorded: S. sanguinis
1T-272 (QLAPIDKQLKAVKKIAFYESESTAAKAVTVA; Peptide with targeting and/or antimicrobial activity) [Peptide 1T-272] | F. nucleatum; also recorded: S. mutans; also recorded: S. oralis; also recorded: S. sanguinis
1T-170 (AYGKVFSMDIMLSENDKLIVLRISHHSAWH; Peptide with targeting and/or antimicrobial activity) [Peptide 1T-170] | P. gingivalis
1T-264 (LEGKFYMAEDFDKTPECFKDYV; Peptide with targeting and/or antimicrobial activity) [Peptide 1T-264] | S. sanguinis
1T-288 (RWVGGEPSADIYLSAKDTKT; Peptide with targeting and/or antimicrobial activity) [Peptide 1T-288] | F. nucleatum; also recorded: S. gordonii; also recorded: S. salivarious; also recorded: S. sanguinis
1T-44 (DPALADFAAGMRAQVRT; Peptide with targeting and/or antimicrobial activity) [Peptide 1T-44] | S. mutans; also recorded: S. aureus; also recorded: S. epidermidis; also recorded: C. jeikeium; also recorded: C. striatum; also recorded: P. aeruginosa
1T-216 (FFLNVIAIRIPHF; Peptide with targeting and/or antimicrobial activity) [Peptide 1T-216] | S. sanguinis
1T-22 (VPLDDGTRRPEVARNRDKDRED; Peptide with targeting and/or antimicrobial activity) [Peptide 1T-22] | S. epidermidis; also recorded: P. aeruginosa
1T-28 (VSRDEAMEFIDREWTTLQPAGKSHA; Peptide with targeting and/or antimicrobial activity) [Peptide 1T-28] | P. aeruginosa
1T-14 (ALAGLAGLISGK; Peptide with targeting and/or antimicrobial activity) [Peptide 1T-14] | S. mutans; also recorded: S. aureus; also recorded: S. epidermidis; also recorded: C. xerosis
1T-8 (FSVAACGEQRAVTFVLLIEDLI; Peptide with targeting and/or antimicrobial activity) [Peptide 1T-8] | M. xanthus
1T-33 (VRTLTILVIFIFNYLKSISYKLKQPFENNLAQSMISI; Peptide with targeting and/or antimicrobial activity) [Peptide 1T-33] | S. aureus; also recorded: S. epidermidis; also recorded: C. jeikeium; also recorded: C. xerosis; also recorded: C. striatum; also recorded: P. aeruginosa
1T-297 (RSLRLNNALTKLPKLWYNRIKEAFYAYNDYDK; Peptide with targeting and/or antimicrobial activity) [Peptide 1T-297] | A. naeslundii; also recorded: F. nucleatum; also recorded: T. denticola; also recorded: S. mitis; also recorded: S. mutans; also recorded: S. oralis
Py Pf 12 ([dS]KG[Orn][dS]SGK[dOrn]ES; lactam 8-C; not fully specified) | P. fluorescens
1T-65 (HARAAVGVAELPRGAAVEVELIAAVRP; Peptide with targeting and/or antimicrobial activity) [Peptide 1T-65] | S. mutans; also recorded: S. aureus; also recorded: S. epidermidis; also recorded: C. jeikeium; also recorded: C. xerosis; also recorded: C. striatum; also recorded: P. aeruginosa

same assay, conditions: microorganism(s) the targeting peptide binds; binding in aqueous buffers depending on peptide solubility, preferably 1x PBS

Substance | Target(s)
PF-101 (DPVPERQEQACACHRTAKPGK; Peptide with targeting and/or antimicrobial activity) | S. mutans
PF-131 (RRAAARTKGNRR; Peptide with targeting and/or antimicrobial activity) | S. epidermidis and E. coli and MRSA and C. jeikeium
PF-284 (MRYITYSLIPRLLSKKVIHQQ; Peptide with targeting and/or antimicrobial activity) | C. difficile
PF-195 (EMAEGSADDRLRKTPRDC; Peptide with targeting and/or antimicrobial activity) | S. epidermidis; also recorded: M. luteus; also recorded: E. faecalis; also recorded: C. jeikeium
PF-230 (EDKPTNTIQEIKPVKWQ; Peptide with targeting and/or antimicrobial activity) | S. mutans
PF-361 (NQVTEGIRLLVE; Peptide with targeting and/or antimicrobial activity) | S. epidermidis; also recorded: E. coli; also recorded: E. faecalis; also recorded: C. jejuni
PF-183 (KPGISVENRQ; Peptide with targeting and/or antimicrobial activity) | S. epidermidis and M. luteus and E. coli and C. albicans and MRSA and E. faecalis and C. jeikeium
MKKLVAALAVIVILTGCVYDPVNYDKIHDQEFQDHLRQNG [PF-252] | S. mutans
PF-295 (NIQVYESECGNYIFKKSDESFLIDIFDKNGTH; Peptide with targeting and/or antimicrobial activity) | C. difficile
PF-300 (VKDVLLELFNKIIGA; Peptide with targeting and/or antimicrobial activity) | B. subtilis; also recorded: C. difficile
PF-161 (RGRALASTATTRPARRRR; Peptide with targeting and/or antimicrobial activity) | S. epidermidis; also recorded: M. luteus; also recorded: E. coli; also recorded: C. jejuni
PF-225 (MNCASPEFKKLMELYK; Peptide with targeting and/or antimicrobial activity) | S. epidermidis
PF-160 (SFHASLTKNEKPIKSTG; Peptide with targeting and/or antimicrobial activity) | S. epidermidis

same assay, conditions: microorganism(s) the targeting peptide binds; peptide binding conducted in aqueous buffers varied by peptide solubility, preferably 1x PBS

Substance | Target(s)
PF-496 (EVTKRLVALAQQQLRG; Peptide with targeting and/or antimicrobial activity) | S. mutans; also recorded: E. coli
PF-503 (VVTLKDIVAVIEDQGYDVQ; Peptide with targeting and/or antimicrobial activity) | S. mutans

same assay, conditions: peptide binding in aqueous buffers varied by peptide solubility; preferably 1x PBS

Substance | Target(s) (microorganisms bound by the targeting peptide)
PF-C093 (EKLGTMV; Peptide with targeting and/or antimicrobial activity) | A. naeslundii; also recorded: F. nucleatum; also recorded: S. mutans
PF-728 (AIGQEQDRREYYYYSGYPYYY; Peptide with targeting and/or antimicrobial activity) | S. mutans; also recorded: E. coli
PF-671 (TVSAFRTVH; Peptide with targeting and/or antimicrobial activity) | S. mutans; also recorded: E. coli
PF-773 (TLKESK; Peptide with targeting and/or antimicrobial activity) | S. epidermidis; also recorded: C. albicans; also recorded: C. jeikeium
PF-709 (NKKHSPMD; Peptide with targeting and/or antimicrobial activity) | S. mutans
PF-795 (ALHKSGIQVIADWVPDQIYN; Peptide with targeting and/or antimicrobial activity) | S. mutans
PF-777 (PGADGKLAEASAAIARLVRS; Peptide with targeting and/or antimicrobial activity) | Mycobacteria spp.
PF-786 (LSERERRRLKRGII; Peptide with targeting and/or antimicrobial activity) | Mycobacteria spp.
PF-779 (IYGDFFNFYLCDISLKVNGLQPGGPVRTVKLFGQPTGRCTPQ; Peptide with targeting and/or antimicrobial activity) | Mycobacteria spp.
PF-731 (RHKLIRLPLSESVFCFLNNPKI; Peptide with targeting and/or antimicrobial activity) | L. pneumophila
